The subject of assay [1] is HCVPV1b subgenomic replicon (wild type 1b). The assay can be described thus: HCV replicon RNA replication assay, wild type 1b. The class given is cell-based, HCV genotype 1b (Con-1), Huh-7 cells. The note with it: Hepatitis C virus; Table 1; luciferase replicon, Huh-7, 72 h; read-out: WT 1b Ec50.
Assay [2] concerns HCV genotype 1a subgenomic replicon with NS3 resistance mutation D168V. The assay can be described thus: HCV replicon RNA replication assay, D168V 1a. The class given is cell-based, HCV genotype 1a (strain H77), Huh-7 cells. The note with it: Hepatitis C virus, Huh-7, 72 h, read-out: D168V 1a Ec50 (nM).
Assay [3] concerns HCVPV1a subgenomic replicon (wild type 1a). The assay can be described thus: HCV replicon RNA replication assay, wild type 1a. The class given is cell-based, HCV genotype 1a (strain H77), Huh-7 cells. The note with it: Hepatitis C virus; Table 1; luciferase replicon, Huh-7, 72 h; read-out: WT 1a Ec50.
The subject of assay [4] is HCV genotype 1a subgenomic replicon with NS3 resistance mutation R155K. In words: HCV replicon RNA replication assay, R155K 1a. The class given is cell-based, HCV genotype 1a (strain H77), Huh-7 cells. The following applies: Hepatitis C virus, Huh-7, 72 h, read-out: R155K 1a Ec50 (nM).
Assay [5] has as its system HCV genotype 1b subgenomic replicon with NS3 resistance mutation D168V. In words: HCV replicon RNA replication assay, D168V 1b. The following applies: Hepatitis C virus, Huh-7, 72 h, read-out: D168V 1b Ec50 (nM). The class given is cell-based, HCV genotype 1b (Con-1), Huh-7 cells.

The structures appear in SMILES notation.

Regarding `Cc1c(O)ccc2c(O[C@@H]3C[C@H]4C(=O)N[C@]5(C(=O)NS(=O)(=O)C6(C)CC6)C[C@H]5/C=C\CCCCC[C@H](NC(=O)c5ccn(C)n5)C(=O)N4C3)cc(OC(C)C)nc12` [Compound 1015, (2R,6S,12Z,13aS,14aR,16aS)-2-{[7-hydroxy-8-methyl-2-(propan-2-yloxy)quinolin-4-yl]oxy}-N-[(1-methylcyclopropyl)sulfonyl]-6-{[(1-methyl-1H-pyrazol-3-yl)carbonyl]amino}-5,16-dioxo-1,2,3,6,7,8,9,10,11,13a,14,15,16,16a-tetradecahydrocyclopropa[e]pyrrolo[1,2-a][1,4]diazacyclopentadecine-14a(5H)-carboxamide], the 50% effective concentration (EC50) in assay [1] is 1.3 nM; in assay [2] it was 6.9 nM; in assay [3], 0.96 nM; in assay [4], 0.95 nM; in assay [5] it was 0.96 nM.

As to `COc1c(F)ccc2c(O[C@@H]3C[C@H]4C(=O)N[C@]5(C(=O)NS(=O)(=O)C6(C)CC6)C[C@H]5/C=C\CCCCC[C@H](NC(=O)c5ccn(CC(F)F)n5)C(=O)N4C3)cc(OC(C)C)nc12` [Compound 1022, (2R,6S,12Z,13aS,14aR,16aS)-6-({[1-(2,2-difluoroethyl)-1H-pyrazol-3-yl]carbonyl}amino)-2-{[7-fluoro-8-methoxy-2-(propan-2-yloxy)quinolin-4-yl]oxy}-N-[(1-methylcyclopropyl)sulfonyl]-5,16-dioxo-1,2,3,6,7,8,9,10,11,13a,14,15,16,16a-tetradecahydrocyclopropa[e]pyrrolo[1,2-a][1,4]diazacyclopentadecine-14a(5H)-carboxamide], the EC50 turned out to be 0.41 nM in assay [1]; 0.97 nM in assay [2]; 0.42 nM in assay [3]; 1.3 nM in assay [4]; 0.62 nM in assay [5].

Turning to `CC(C)Oc1cc(O[C@@H]2C[C@H]3C(=O)N[C@]4(C(=O)NS(=O)(=O)C5(C)CC5)C[C@H]4/C=C\CCCCC[C@H](NC(=O)c4ccn(C)n4)C(=O)N3C2)c2ccc(Cl)c(Cl)c2n1` [Compound 1025, (2R,6S,12Z,13aS,14aR,16aS)-2-{[7,8-dichloro-2-(propan-2-yloxy)quinolin-4-yl]oxy}-N-[(1-methylcyclopropyl)sulfonyl]-6-{[(1-methyl-1H-pyrazol-3-yl)carbonyl]amino}-5,16-dioxo-1,2,3,6,7,8,9,10,11,13a,14,15,16,16a-tetradecahydrocyclopropa[e]pyrrolo[1,2-a][1,4]diazacyclopentadecine-14a(5H)-carboxamide], the 50% effective concentration (EC50) in assay [1] is 0.17 nM; in assay [2], 3.8 nM; in assay [3], 0.22 nM; in assay [4] it was 9.3 nM; in assay [5] it was 0.11 nM.

For `COc1c(F)ccc2c(O[C@@H]3C[C@H]4C(=O)N[C@]5(C(=O)NS(=O)(=O)C6CC6)C[C@H]5/C=C\CCCCC[C@H](NC(=O)c5ccn(C)n5)C(=O)N4C3)cc(OC(C)C)nc12` [Compound 1016, (2R,6S,12Z,13aS,14aR,16aS)-N-(cyclopropylsulfonyl)-2-{[7-fluoro-8-methoxy-2-(propan-2-yloxy)quinolin-4-yl]oxy}-6-{[(1-methyl-1H-pyrazol-3-yl)carbonyl]amino}-5,16-dioxo-1,2,3,6,7,8,9,10,11,13a,14,15,16,16a-tetradecahydrocyclopropa[e]pyrrolo[1,2-a][1,4]diazacyclopentadecine-14a(5H)-carboxamide], the 50% effective concentration (EC50) in assay [1] was 1.1 nM; in assay [2], 3.9 nM; in assay [3] it was 1.5 nM; in assay [4], 7.9 nM; in assay [5], 1 nM.

As to `COc1c(F)ccc2c(O[C@@H]3C[C@H]4C(=O)N[C@]5(C(=O)NS(=O)(=O)C6(C)CC6)C[C@H]5/C=C\CCCCC[C@H](NC(=O)c5ccn(CCF)n5)C(=O)N4C3)cc(OC(C)C)nc12` [Compound 1021, (2R,6S,12Z,13aS,14aR,16aS)-6-({[1-(2-fluoroethyl)-1H-pyrazol-3-yl]carbonyl}amino)-2-{[7-fluoro-8-methoxy-2-(propan-2-yloxy)quinolin-4-yl]oxy}-N-[(1-methylcyclopropyl)sulfonyl]-5,16-dioxo-1,2,3,6,7,8,9,10,11,13a,14,15,16,16a-tetradecahydrocyclopropa[e]pyrrolo[1,2-a][1,4]diazacyclopentadecine-14a(5H)-carboxamide], the 50% effective concentration (EC50) in assay [1] came to 0.48 nM; in assay [2] it was 0.93 nM; in assay [3], 0.34 nM; in assay [4] it was 1.9 nM; in assay [5] it was 0.53 nM.

On to `Cc1c(F)ccc2c(O[C@@H]3C[C@H]4C(=O)N[C@]5(C(=O)NS(=O)(=O)C6(C)CC6)C[C@H]5/C=C\CCCCC[C@H](NC(=O)c5ccn(C)n5)C(=O)N4C3)cc(OC(C)C)nc12` [Compound 1008, (2R,6S,12Z,13aS,14aR,16aS)-2-{[7-fluoro-8-methyl-2-(propan-2-yloxy)quinolin-4-yl]oxy}-N-[(1-methylcyclopropyl)sulfonyl]-6-{[(1-methyl-1H-pyrazol-3-yl)carbonyl]amino}-5,16-dioxo-1,2,3,6,7,8,9,10,11,13a,14,15,16,16a-tetradecahydrocyclopropa[e]pyrrolo[1,2-a][1,4]diazacyclopentadecine-14a(5H)-carboxamide], for which the concentration giving a half-maximal response (EC50) in assay [1] turned out to be 0.35 nM; in assay [2], 6.6 nM; in assay [3], 0.24 nM; in assay [4] it was 1.9 nM; in assay [5] it was 0.2 nM.

With `COc1ccc2c(O[C@@H]3C[C@H]4C(=O)N[C@]5(C(=O)NS(=O)(=O)C6(C)CC6)C[C@H]5/C=C\CCCCC[C@H](NC(=O)c5ccn(CC(=O)N(C)C)n5)C(=O)N4C3)cc(OC(C)C)nc2c1C` [Compound 1017, (2R,6S,12Z,13aS,14aR,16aS)-6-[({1-[2-(dimethylamino)-2-oxoethyl]-1H-pyrazol-3-yl}carbonyl)amino]-2-{[7-methoxy-8-methyl-2-(propan-2-yloxy)quinolin-4-yl]oxy}-N-[(1-methylcyclopropyl)sulfonyl]-5,16-dioxo-1,2,3,6,7,8,9,10,11,13a,14,15,16,16a-tetradecahydrocyclopropa[e]pyrrolo[1,2-a][1,4]diazacyclopentadecine-14a(5H)-carboxamide], the concentration for a half-maximal effect (EC50) in assay [1] was found to be 1.1 nM; in assay [2], 2.7 nM; in assay [3] it was 1.1 nM; in assay [4] it was 1.2 nM; in assay [5], 1.5 nM.

Regarding `COc1ccc2c(O[C@@H]3C[C@H]4C(=O)N[C@]5(C(=O)NS(=O)(=O)C6(C)CC6)C[C@H]5/C=C\CCCCC[C@H](NC(=O)c5ccn(CC(F)(F)F)n5)C(=O)N4C3)cc(OC(C)C)nc2c1C` [Compound 1005, (2R,6S,12Z,13aS,14aR,16aS)-2-{[7-methoxy-8-methyl-2-(propan-2-yloxy)quinolin-4-yl]oxy}-N-[(1-methylcyclopropyl)sulfonyl]-5,16-dioxo-6-({[1-(2,2,2-trifluoroethyl)-1H-pyrazol-3-yl]carbonyl}amino)-1,2,3,6,7,8,9,10,11,13a,14,15,16,16a-tetradecahydrocyclopropa[e]pyrrolo[1,2-a][1,4]diazacyclopentadecine-14a(5H)-carboxamide], the EC50 in assay [1] was 0.16 nM; in assay [2] it was 1.4 nM; in assay [3], 0.18 nM; in assay [4], 0.85 nM; in assay [5], 0.17 nM.

In the case of `COCCn1ccc(C(=O)N[C@H]2CCCCC/C=C\[C@@H]3C[C@@]3(C(=O)NS(=O)(=O)C3(C)CC3)NC(=O)[C@@H]3C[C@@H](Oc4cc(OC(C)C)nc5c(C)c(OC)ccc45)CN3C2=O)n1` [Compound 1002, (2R,6S,12Z,13aS,14aR,16aS)-6-({[1-(2-methoxyethyl)-1H-pyrazol-3-yl]carbonyl}amino)-2-{[7-methoxy-8-methyl-2-(propan-2-yloxy)quinolin-4-yl]oxy}-N-[(1-methylcyclopropyl)sulfonyl]-5,16-dioxo-1,2,3,6,7,8,9,10,11,13a,14,15,16,16a-tetradecahydrocyclopropa[e]pyrrolo[1,2-a][1,4]diazacyclopentadecine-14a(5H)-carboxamide], the EC50 was found to be 0.32 nM in assay [1]; 2.8 nM in assay [2]; 0.38 nM in assay [3]; 1.5 nM in assay [4]; 0.12 nM in assay [5].

Consider `Cc1c(Cl)ccc2c(O[C@@H]3C[C@H]4C(=O)N[C@]5(C(=O)NS(=O)(=O)C6(C)CC6)C[C@H]5/C=C\CCCCC[C@H](NC(=O)c5ccn(C)n5)C(=O)N4C3)cc(OC(C)C)nc12` [Compound 1003, (2R,6S,12Z,13aS,14aR,16aS)-2-{[7-chloro-8-methyl-2-(propan-2-yloxy)quinolin-4-yl]oxy}-N-[(1-methylcyclopropyl)sulfonyl]-6-{[(1-methyl-1H-pyrazol-3-yl)carbonyl]amino}-5,16-dioxo-1,2,3,6,7,8,9,10,11,13a,14,15,16,16a-tetradecahydrocyclopropa[e]pyrrolo[1,2-a][1,4]diazacyclopentadecine-14a(5H)-carboxamide], for which the 50% effective concentration (EC50) in assay [1] stood at 0.21 nM; in assay [2] it was 6.9 nM; in assay [3] it was 0.24 nM; in assay [4], 7.7 nM; in assay [5], 0.12 nM.

The values are drawn from patent US20120077737A1, “HEPATITIS C INHIBITOR COMPOUNDS” (priority 2009, published 2012).
